The source of these data is PMC6430500, “3-Fluoro-4-hydroxyprolines: Synthesis, Conformational Analysis, and Stereoselective Recognition by the VHL E3 Ubiquitin Ligase for Targeted Protein Degradation” (Journal of the American Chemical Society, 2018).

One may read the Kd as a measure of binding affinity in units of concentration.

Type in all cases: binding
The target in assay [1] is T1, VBC and Brd4BD2 (Homo sapiens, UniProt O60885+P40337).
T1 construct: VHL (54–213), ElonginC (17–112) and; Brd4BD2 (333–460); His6 (N, cleaved yes); made in house; host or cells: E. coli BL21(DE3)
Kind of assay: ITC ternary complex formation, VBC titrated into PROTAC:Brd4BD2. The conditions noted are these: for α (cooperativity): Kd binary,VBC/Kd ternary; for α (cooperativity) / ΔΔG: Brd4BD2; for Kd / ΔG / ΔH / –TΔS: PROTAC:Brd4BD2 in cell, VBC in syringe; for ΔΔG: ternary vs binary. From the text: (§1) structure (C2 R, C3 S, C4 R) assumed on the basis of unchanging stereogenic centres in the synthesis.
(§2) Final R(F) = 0.033, wR(F 2) = 0.085 for 275 parameters and 3901 reflections with I > 2σ(I) (corresponding R-values based on all 4067 reflections = 0.035 and 0.086, respectively), CCDC […]
(§3) Protein expression and purification.
(§4) Wild-type versions of human proteins VHL (UniProt accession number: P40337), ElonginC […]
(§5) expression. For expression of VBC, N-terminally His6-tagged VHL (54–213), ElonginC (17–112) and ElonginB (1–104) were co- expressed in Escherichia coli BL21(DE3) at 24 °C for 16 h using 0.3 mM isopropyl β-D -1-thiogalactopyranoside (IPTG). E. coli cells were lysed using a pressure cell homogenizer (Stansted Fluid Power) and lysate clarified by centrifugation. His6-tagged VCB was purified on a HisTrap FF affinity column (GE Healthcare) by elution with an imidazole gradient. The His6tag was removed using TEV protease and the untagged complex dialyzed into low -concentration imidazole buffer. VCB was then flowed through the HisTrap FF column a second time, allowing impurities to bind, as the complex eluted without binding. VCB was then additionally purified by anion exchange and size-exclusion chromatography using ResourceQ and Superdex-75 columns (GE Healthcare), respectively. The final purified complex was stored in 20 mM Bis–Tris, pH 7, 150 mM sodium chloride and 1 mM dithiothreitol (DTT). Brd2BD1 (71–194), and Brd4BD2 (333–460) were expressed with an N-terminal His6 tag in E. coli BL21(DE3) at 18 °C for 20 h using 0.2 mM IPTG.
(§6) His6-tagged BDs were purified on nickel Sepharose 6 fast flow beads (GE Healthcare) by elution with increasing concentrations of imidazole. For crystallography the His6-tagged BD was cleaved with TEV protease and dialyzed into low-concentration imidazole buffer. The BD was then flowed over the nickel beads a second time to remove impurities and protease. BDs were then additionally purified by size-exclusion chromatography using a Superdex-75 column. The BDs were purified by size-exclusion chromatography using a Superdex-75 column. The final purified proteins were stored in 20 mM 4-(2-hydroxyethyl)-1-piperazineethanesulfonic acid (HEPES), pH 7.5, 150 mM sodium chloride and 1 mM DTT. All chromatography purification steps were performed using Äkta FPLC purification systems (GE Healthcare) or glass econo-columns (Bio-Rad) at room temperature.
(§7) Isothermal titration calorimetry (ITC) of peptides and ligands
(§8) Titrations were performed on an ITC200 micro-calorimeter (GE Healthcare). The peptides were dissolved in buffer (20 mM Bis–Tris propane, 100 mM NaCl, 1 mM tris(2-carboxyethyl)phosphine […]
(§9) (TCEP), pH 7.4) at 100 µM. The compounds were titrated against 10 µM VBC complex, equilibrated in the same buffer. The titrations consisted of 20 injections of 2 µL of peptide solution at a rate of 0.5 µL/s at 120 s time intervals. An initial injection of ligand (0.4 µL) was made and discarded during data analysis. All experiments were performed at 25°C while stirring at 650 rpm.
(§10) Ligands 14a- b were diluted from DMSO stock solution to 300 µM in buffer (20 mM Bis-Tris propane, 150 mM NaCl, 1 mM TCEP, pH 7.4). The compounds were titrated against 30 µM VBC complex, equilibrated in the same buffer. The final concentration of DMSO in each experiment was […]
(§11) The data were fitted to a single-binding-site model using the MicroCal PEAQ-ITC analysis software provided by the manufacturer to obtain the stoichiometry n, the dissociation constant K d, and the enthalpy of binding ΔH . The reported values are the mean ± s.e.m. from independent measurements.
(§12) Isothermal titration calorimetry (ITC)of PROTACs
(§13) The titrations were all performed as reverse mode (protein in syringe, ligand in cell) and consisted of 19 injections of 2 µl protein solution (20 mM Bis–Tris propane, 100 mM NaCl, 1 mM tris(2-carboxyethyl)phosphine (TCEP), pH 7.4) at a rate of 0.5 µl/s at 120 s time intervals. An initial injection (0.4 µl) was made and discarded during data analysis. […]

Assay [2] has as its target T2, VBC (Homo sapiens, UniProt P40337).
T2 construct: VHL (54–213), ElonginC (17–112) and; His6 (N, cleaved yes); made in house; host or cells: Escherichia coli BL21(DE3)
Kind of assay: ITC of PROTACs, binary complex PROTAC–VBC. The following applies: for ΔG / ΔH / –TΔS / Kd: PROTAC in cell, VBC in syringe; for Kd: mean ± SEM.
From the text: as §1, §2, §3, §4, §5, §6, §7, §8, §9, §10, §11, §12, §13

In assay [3] the target is T3, Brd2BD1 (Homo sapiens, UniProt P25440).
T3 construct: Brd2BD1 (71–194),; made in house; host or cells: E. coli BL21(DE3)
T3 sequence (P25440 71-194): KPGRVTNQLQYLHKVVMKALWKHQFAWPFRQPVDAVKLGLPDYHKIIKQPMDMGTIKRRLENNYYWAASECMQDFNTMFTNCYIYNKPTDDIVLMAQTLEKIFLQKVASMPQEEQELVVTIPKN
Kind of assay: ITC of PROTACs, binary titration with Brd2BD1. The following applies: PROTAC in cell, Brd2BD1 in syringe.
From the text: as §1, §2, §3, §4, §5, §6, §7, §8, §9, §10, §11, §12, §13

For assay [4], the target named is T4, Brd4BD2 (Homo sapiens, UniProt O60885).
T4 construct: Brd4BD2 (333–460); made in house; host or cells: E. coli BL21(DE3)
Kind of assay: ITC of PROTACs, binary titration with Brd4BD2. The conditions noted are these: PROTAC in cell, Brd4BD2 in syringe.
From the text: as §1, §2, §3, §4, §5, §6, §7, §8, §9, §10, §11, §12, §13

Take `Cc1ncsc1-c1ccc(CNC(=O)[C@@H]2[C@H](F)[C@@H](O)CN2C(=O)[C@@H](NC(=O)COCCOCCOCCNC(=O)C[C@@H]2N=C(c3ccc(Cl)cc3)c3c(sc(C)c3C)-n3c(C)nnc32)C(C)(C)C)cc1` [15b]: in assay [1], the “α (cooperativity)” value is on record as 14.5, binding was put at a Kd of 42 ± 6 nM, the ΔG is reported as -10.01 kcal/mol and the ΔH is -7.75 kcal/mol. Moreover, in assay [1], the “–TΔS” value is recorded as -2.34 kcal/mol and the ΔΔG is -1.6 ± 0.1 kcal/mol. The “fold weaker ligand for VBC” value in assay [2] (15b compared to 15a) was found to be 2.5 fold. In assay [2], the ΔG is -8.49 ± 0.07 kcal/mol, the ΔH is -5.0 ± 0.2 kcal/mol, the “–TΔS” value is -3.7 ± 0.2 kcal/mol and binding was put at a Kd of 603 ± 74 nM. In assay [3], the Kd came out at 111 ± 6 nM, the ΔG is -9.49 ± 0.03 kcal/mol, the ΔH is -14.1 ± 0.6 kcal/mol and the “–TΔS” value is 4.9 ± 0.6 kcal/mol. In addition, in assay [4], the Kd turned out to be 32 ± 3 nM, the ΔG is on record as -10.3 ± 0.1 kcal/mol, the ΔH was -9.3 ± 0.4 kcal/mol and the “–TΔS” value is given as -0.9 ± 0.4 kcal/mol.

Turning to `Cc1ncsc1-c1ccc(CNC(=O)[C@@H]2[C@@H](F)[C@@H](O)CN2C(=O)[C@@H](NC(=O)COCCOCCOCCNC(=O)C[C@@H]2N=C(c3ccc(Cl)cc3)c3c(sc(C)c3C)-n3c(C)nnc32)C(C)(C)C)cc1` [15a], in assay [1], the “α (cooperativity)” value was found to be 9.5, the Kd was found to be 26 ± 5 nM, the ΔG is recorded as -10.13 kcal/mol and the ΔH was -10.9 ± 0.7 kcal/mol. In assay [1], the “–TΔS” value is listed as -0.6 ± 0.4 kcal/mol and the ΔΔG is reported as -1.12 kcal/mol. In assay [2], the ΔG was -9.01 ± 0.02 kcal/mol, the ΔH was -7.9 ± 0.3 kcal/mol, the “–TΔS” value is listed as -1.1 ± 0.2 kcal/mol and the Kd was found to be 249 ± 6 nM. Also, in assay [3], the Kd was 97 ± 0.6 nM, the ΔG is -9.57 ± 0.01 kcal/mol, the ΔH is -13.7 ± 0.3 kcal/mol and the “–TΔS” value is listed as 4.2 ± 0.3 kcal/mol. For the same compound, in assay [4], the affinity, expressed as Kd, was 28 ± 2 nM; the ΔG is listed as -10.30 kcal/mol; the ΔH was -10.4 ± 0.8 kcal/mol; the “–TΔS” value was 0.1 ± 0.6 kcal/mol.
